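Five compound concentrations were applied to cells in 96-well plates for 48 hours; endpoints were derived by simple linear interpolation of the resulting dose-response curve. At the TGI there is no net growth.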
Legend:
Experiment in all cases: NCI anticancer screen, dose series, 48 h
[1] = tested on: 786-0 renal
[2] = tested on: A498 renal
[3] = tested on: A549 NSCLC
[4] = tested on: ACHN renal
[5] = tested on: CAKI-1 renal
[6] = tested on: CCRF-CEM leukemia
[7] = tested on: COLO 205 colon
[8] = tested on: DLD-1 colon
[9] = tested on: DMS 114 small cell lung
[10] = tested on: DMS 273 small cell lung
[11] = tested on: EKVX NSCLC
[12] = tested on: HCT-116 colon
[13] = tested on: HCT-15 colon
[14] = tested on: HOP-18 NSCLC
[15] = tested on: HOP-62 NSCLC
[16] = tested on: HT29 colon
[17] = tested on: IGROV1 ovarian
[18] = tested on: K-562 leukemia
[19] = tested on: KM20L2 colon
[20] = tested on: LOX IMVI melanoma
[21] = tested on: LXFL 529 NSCLC
[22] = tested on: M19-MEL melanoma
[23] = tested on: MOLT-4 leukemia
[24] = tested on: NCI-H23 lung
[25] = tested on: NCI-H460 lung
[26] = tested on: NCI-H522 lung
[27] = tested on: OVCAR-8 ovarian
[28] = tested on: RXF 393 renal
[29] = tested on: SF-268 CNS
[30] = tested on: SF-295 CNS
[31] = tested on: SF-539 CNS
[32] = tested on: SK-MEL-28 melanoma
[33] = tested on: SK-MEL-5 melanoma
[34] = tested on: SK-OV-3 ovarian
[35] = tested on: SN12C renal
[36] = tested on: SNB-19 CNS
[37] = tested on: SW-620 colon
[38] = tested on: TK-10 renal
[39] = tested on: UACC-62 melanoma
[40] = tested on: UO-31 renal
[41] = tested on: XF 498 CNS
[42] = tested on: HCC-2998 colon
[43] = tested on: HL-60(TB) leukemia
[44] = tested on: HOP-92 NSCLC
[45] = tested on: KM12 colon
[46] = tested on: M14 melanoma
[47] = tested on: MALME-3M melanoma
[48] = tested on: NCI-H226 lung
[49] = tested on: OVCAR-3 ovarian
[50] = tested on: OVCAR-4 ovarian
[51] = tested on: OVCAR-5 ovarian
[52] = tested on: SK-MEL-2 melanoma
[53] = tested on: SNB-75 CNS
[54] = tested on: SNB-78 CNS
[55] = tested on: SR leukemia
[56] = tested on: U251 CNS
[57] = tested on: RPMI-8226 leukemia
[58] = tested on: UACC-257 melanoma
[59] = tested on: BT-549 breast
[60] = tested on: DU-145 prostate
[61] = tested on: HS 578T breast
[62] = tested on: MCF7 breast
[63] = tested on: MDA-MB-231 breast
[64] = tested on: MDA-MB-435
[65] = tested on: MDA-N
[66] = tested on: NCI/ADR-RES ovarian
[67] = tested on: PC-3 prostate
[68] = tested on: T-47D breast

## Cc1nc2ccccc2c(=O)n1/N=C(\N=Nc1ccc(Cl)cc1)c1ccc(N(C)C)cc1
[1]
  TGI: > 100 µM
[2]
  TGI: > 100 µM
[3]
  TGI: > 100 µM
[4]
  TGI: > 100 µM
[5]
  TGI: > 100 µM
[6]
  TGI: > 100 µM
[7]
  TGI: > 100 µM
[8]
  TGI: > 100 µM
[9]
  TGI: > 100 µM
[10]
  TGI: > 100 µM
[11]
  TGI: > 100 µM
[12]
  TGI: > 100 µM
[13]
  TGI: > 100 µM
[14]
  TGI: > 100 µM
[15]
  TGI: > 100 µM
[16]
  TGI: > 100 µM
[17]
  TGI: > 100 µM
[18]
  TGI: > 100 µM
[19]
  TGI: > 100 µM
[20]
  TGI: > 100 µM
[21]
  TGI: > 100 µM
[22]
  TGI: > 100 µM
[23]
  TGI: > 100 µM
[24]
  TGI: > 100 µM
[25]
  TGI: > 100 µM
[26]
  TGI: > 100 µM
[27]
  TGI: > 100 µM
[28]
  TGI: > 100 µM
[29]
  TGI: > 100 µM
[30]
  TGI: > 100 µM
[31]
  TGI: > 100 µM
[32]
  TGI: > 100 µM
[33]
  TGI: > 100 µM
[34]
  TGI: > 100 µM
[35]
  TGI: > 100 µM
[36]
  TGI: > 100 µM
[37]
  TGI: > 100 µM
[38]
  TGI: > 100 µM
[39]
  TGI: > 100 µM
[40]
  TGI: > 100 µM
[41]
  TGI: 96.3 µM

## N#CN1CCC2CC(=O)CCC2C1 (configuration not stated)
[1]
  TGI: > 100 µM
[3]
  TGI: > 100 µM
[4]
  TGI: > 100 µM
[5]
  TGI: > 100 µM
[9]
  TGI: > 100 µM
[42]
  TGI: > 100 µM
[12]
  TGI: > 100 µM
[13]
  TGI: > 100 µM
[43]
  TGI: > 100 µM
[44]
  TGI: > 100 µM
[17]
  TGI: > 100 µM
[18]
  TGI: > 100 µM
[45]
  TGI: > 100 µM
[19]
  TGI: > 100 µM
[20]
  TGI: > 100 µM
[46]
  TGI: > 100 µM
[47]
  TGI: > 100 µM
[23]
  TGI: > 100 µM
[48]
  TGI: > 100 µM
[24]
  TGI: > 100 µM
[49]
  TGI: > 100 µM
[50]
  TGI: > 100 µM
[51]
  TGI: > 100 µM
[28]
  TGI: > 100 µM
[29]
  TGI: > 100 µM
[52]
  TGI: > 100 µM
[32]
  TGI: > 100 µM
[34]
  TGI: > 100 µM
[35]
  TGI: > 100 µM
[36]
  TGI: > 100 µM
[53]
  TGI: > 100 µM
[54]
  TGI: > 100 µM
[55]
  TGI: > 100 µM
[37]
  TGI: > 100 µM
[38]
  TGI: > 100 µM
[56]
  TGI: > 100 µM
[39]
  TGI: > 100 µM
[40]
  TGI: > 100 µM

## C[C@H](O)CCC(=O)c1ccoc1
[1]
  TGI: > 100 µM
[2]
  TGI: > 100 µM
[3]
  TGI: > 100 µM
[4]
  TGI: > 100 µM
[5]
  TGI: > 100 µM
[6]
  TGI: > 100 µM
[7]
  TGI: > 100 µM
[8]
  TGI: > 100 µM
[9]
  TGI: > 100 µM
[10]
  TGI: > 100 µM
[11]
  TGI: > 100 µM
[42]
  TGI: > 100 µM
[12]
  TGI: > 100 µM
[13]
  TGI: > 100 µM
[43]
  TGI: > 100 µM
[14]
  TGI: > 100 µM
[15]
  TGI: > 100 µM
[44]
  TGI: > 100 µM
[16]
  TGI: > 100 µM
[17]
  TGI: > 100 µM
[18]
  TGI: > 100 µM
[45]
  TGI: > 100 µM
[19]
  TGI: > 100 µM
[20]
  TGI: > 100 µM
[21]
  TGI: > 100 µM
[46]
  TGI: > 100 µM
[22]
  TGI: > 100 µM
[47]
  TGI: > 100 µM
[23]
  TGI: > 100 µM
[48]
  TGI: > 100 µM
[24]
  TGI: > 100 µM
[25]
  TGI: > 100 µM
[26]
  TGI: > 100 µM
[49]
  TGI: > 100 µM
[50]
  TGI: > 100 µM
[51]
  TGI: > 100 µM
[27]
  TGI: > 100 µM
[57]
  TGI: > 100 µM
[28]
  TGI: > 100 µM
[29]
  TGI: > 100 µM
[30]
  TGI: > 100 µM
[31]
  TGI: > 100 µM
[52]
  TGI: > 100 µM
[32]
  TGI: > 100 µM
[33]
  TGI: > 100 µM
[34]
  TGI: > 100 µM
[35]
  TGI: > 100 µM
[36]
  TGI: > 100 µM
[53]
  TGI: > 100 µM
[54]
  TGI: > 100 µM
[55]
  TGI: > 100 µM
[37]
  TGI: > 100 µM
[38]
  TGI: > 100 µM
[56]
  TGI: > 100 µM
[58]
  TGI: > 100 µM
[39]
  TGI: > 100 µM
[40]
  TGI: > 100 µM

## COc1ccc(CCN2C(=O)C(=O)C(C(=O)c3ccccc3)C2c2ccccc2)cc1OC (configuration not stated)
[1]
  TGI: > 100 µM
[2]
  TGI: > 100 µM
[3]
  TGI: > 100 µM
[4]
  TGI: > 100 µM
[59]
  TGI: > 100 µM
[5]
  TGI: > 100 µM
[6]
  TGI: > 100 µM
[7]
  TGI: > 100 µM
[60]
  TGI: > 100 µM
[11]
  TGI: > 100 µM
[42]
  TGI: > 100 µM
[12]
  TGI: > 100 µM
[13]
  TGI: > 100 µM
[43]
  TGI: > 100 µM
[15]
  TGI: > 100 µM
[44]
  TGI: > 100 µM
[61]
  TGI: > 100 µM
[16]
  TGI: > 100 µM
[17]
  TGI: > 100 µM
[18]
  TGI: > 100 µM
[45]
  TGI: > 100 µM
[20]
  TGI: > 100 µM
[46]
  TGI: > 100 µM
[47]
  TGI: > 100 µM
[62]
  TGI: > 100 µM
[63]
  TGI: > 100 µM
[64]
  TGI: > 100 µM
[65]
  TGI: > 100 µM
[23]
  TGI: > 100 µM
[24]
  TGI: > 100 µM
[25]
  TGI: > 100 µM
[26]
  TGI: > 100 µM
[66]
  TGI: > 100 µM
[49]
  TGI: > 100 µM
[51]
  TGI: > 100 µM
[27]
  TGI: > 100 µM
[67]
  TGI: > 100 µM
[57]
  TGI: > 100 µM
[28]
  TGI: > 100 µM
[29]
  TGI: > 100 µM
[30]
  TGI: > 100 µM
[31]
  TGI: > 100 µM
[52]
  TGI: > 100 µM
[32]
  TGI: > 100 µM
[33]
  TGI: > 100 µM
[34]
  TGI: > 100 µM
[35]
  TGI: > 100 µM
[36]
  TGI: > 100 µM
[55]
  TGI: > 100 µM
[37]
  TGI: > 100 µM
[68]
  TGI: > 100 µM
[38]
  TGI: > 100 µM
[56]
  TGI: > 100 µM
[58]
  TGI: > 100 µM
[39]
  TGI: > 100 µM
[40]
  TGI: > 100 µM

Source: PubChem BioAssay (NCI)
